Reference: patent publication US20130274338A1, “PHARMACEUTICAL COMPOSITIONS COMPRISING DGLA, 15-OHEPA, AND/OR 15-HETRE AND METHODS OF REDUCING SEBUM PRODUCTION USING SAME” (priority 2012, published 2013)
Converted amounts (≈) assume the structure as drawn.

How the values were obtained:
P. acnes = experiment: Agar dilution method, growth of P. acnes and MIC, single compounds; type: cell-based, Propionibacterium acnes; design: key to Growth Index Plate 1 / Growth Index Plate 2 / Growth Index Plate 3 / Growth Index Avg: +++: confluent growth (comparable to control); ++: less confluent growth; +: marked reduction in growth to multiple tiny, single colonies; −: no growth present; details: for MIC: Cutibacterium acnes, compound alone, MIC = concentration with marked reduction (+) of growth, read-out: MIC (mg/mL) as per P-11-0007 or P-11-0008 Addendum A
Method: Several compounds including fatty acids such as DGLA, 15-OHEPA, and 15-HETrE were tested to determine their capacity to inhibit the growth of P. acnes. In an exemplary method, an agar dilution method was used to determine the minimum inhibitory concentration (MIC) of each tested compound. Briefly, the agar dilution method involved preparing a series of concentrations of each compound (e.g., nicotinamide, benzoyl peroxide, adapalene, metronidazole, DGLA, 15-OHEPA, and 15-HETrE) in a Reinforced Clostridial Agar (RCA) media that facilitates growth of P. acnes under anaerobic conditions. An inoculum of P. acnes was prepared by incubation of P. acnes for approximately seven days at 35-37° C. to achieve a ≧1.0 OD600 inoculum of P. acnes in RCM broth. A portion of this inoculum was then added to the surface of each plate as a 10 μL spot and incubated at 35-37° C. for 72 hours or more. Growth of P. acnes was then observed and compared to control plates in which no compound has been added, and positive inhibition plates prepared with erythromycin. […] The growth of P. acnes in the presence of nicotinamide, benzoyl peroxide, adapalene, metronidazole, DGLA, 15-OHEPA, and 15-HETrE was determined with varying concentrations of the compound (see, Table 2). Next, the MIC was determined as the concentration at which a marked reduction (+) occurs in the appearance of growth on the test plate (as per Clinical and Laboratory Standards Institute M11-A7).

[1] = tested on: immortalized sebocyte cell line; experiment: Sebocyte proliferation: viability (M.T.T. test) and morphology after 72 hours; type: cell-based, human
Description: In an embodiment, the pharmacodynamics of a composition comprising DGLA, 15-OHEPA, or 15-HETrE as disclosed herein may be examined using a model of sebum production. In an embodiment, the effects of a composition comprising DGLA, 15-OHEPA, or 15-HETrE as disclosed herein on the proliferation and/or differentiation of sebocytes serves as a model for the pharmacodynamics on sebum production (see, e.g., U.S. Patent Application Publication No. US 2010/0278948, the contents of which are incorporated by reference). In an exemplary method, primary sebocytes are isolated from skin tissue (e.g., human scalp tissue). The isolated primary sebocytes are then immortalized, and the resulting cell line is divided into discrete cultures. Discrete cultures can then be treated with various concentrations of a composition comprising DGLA, 15-OHEPA, or 15-HETrE as disclosed herein. For comparison, a negative control (e.g., a culture of an immortalized sebocyte cell line left untreated) and/or a positive control (e.g., treatment of an immortalized sebocyte cell line with a compound known to inhibit sebocyte growth such as isotretinoin) can be maintained alongside of the test cultures. In an embodiment, a pharmacodynamic assay is maintained for an amount of time suitable to observe differences (if any) between the various immortalized sebocyte cell cultures, for example less than about 24 hours, about 24 hours, about 48 hours, about 72 hours, about 96 hours, about 120 hours, about 144 hours, more than about 144 hours, etc. The effect of treating an immortalized sebocyte cell culture with a given composition or compound can be determined by quantifying, for example and without limitation, the viability of the cultures (e.g., the percent viability and/or mean percent viability). The effect of treating an immortalized sebocyte cell culture with a given composition or compound can be determined by qualitatively assessing, for example and without limitation, morphological changes in the culture. In an embodiment, changes in the morphology of the culture may be classified as: no change (e.g., “normal” population), reduced growth (e.g., “growth reduction”), toxic changes (e.g., “toxicity”), and/or cell death (e.g., “cell mortality”).
The compounds tested in Example 1 were tested to determine the capacity of each to reduce sebum production. In an exemplary method, each compound's ability to inhibit the growth of an immortalized sebocyte cell line was determined.
Primary sebocytes were isolated from sebaceous glands obtained from dissections of human scalp tissue. The primary sebocytes were immortalized and the resulting cell culture was used to study the effects of DGLA and 15-HETrE on sebocyte cell proliferation. Individual cell cultures were treated with eight concentrations of DGLA (1.00 μM, 4.00 μM, […], 37.00 μM, 111.00 μM, 333.00 μM, 1000.00 μM, and 3000.00 μM), and eight concentrations of 15-HETrE (0.50 1.00 4.00 10.00 40.00 110.00 330.00 1000.00). As a positive control, individual cell cultures were treated with eight concentrations of Isotretinoin. Negative control cultures were also maintained. After 72 hours, the mean percent viability for each of the cultures was determined by colorimetry (M.T.T. test) according to J. Mosmann, J. Immunol. Meth., vol. 65, pp. 55-63 (1983), and morphological differences were also observed at that time (see Table 9).

[2] = tested on: immortalized sebocyte cell line; experiment: as above; type: cell-based; details: Homo sapiens

## CCCCC/C=C\C/C=C\C/C=C\CCCCCCC(=O)O [DGLA, cis-8,11,14-eicosatrienoic acid]
P. acnes; 0.4 mg/ml
  effect on growth of P. acnes on its own: no effect
P. acnes
  MIC: 400 to 600 µg/mL (≈ 1310 to 1960 µM)
P. acnes; compound at 0.2 mg/mL
  Growth Index Avg: +++
  Growth Index Plate 1: +++
  Growth Index Plate 2: +++
  Growth Index Plate 3: +++
P. acnes; compound at 0.4 mg/mL
  Growth Index Avg: +++
  Growth Index Plate 1: +++
  Growth Index Plate 2: +++
  Growth Index Plate 3: +++
P. acnes; compound at 0.6 mg/mL
  Growth Index Avg: +
  Growth Index Plate 1: ++
  Growth Index Plate 2: −
  Growth Index Plate 3: ++
P. acnes; compound at 0.8 mg/mL
  Growth Index Avg: +
  Growth Index Plate 1: ++
  Growth Index Plate 2: +
  Growth Index Plate 3: +
P. acnes; compound at 1.0 mg/mL
  Growth Index Avg: +
  Growth Index Plate 1: +
  Growth Index Plate 2: +
  Growth Index Plate 3: +
[1]; Homo sapiens, 1.00 μM, 72 hours
  viability at 1 µM: 107%
[1]; Homo sapiens, 4.00 μM, 72 hours
  viability at 4 µM: 97%
[1]; Homo sapiens, 37.00 μM, 72 hours
  viability at 37 µM: 1%
[1]; Homo sapiens, 111.00 μM, 72 hours
  viability at 111 µM: 2%
[1]; Homo sapiens, 333.00 μM, 72 hours
  viability at 333 µM: 1%
[1]; Homo sapiens, 1000.00 μM, 72 hours
  viability at 1000 µM: 1%
[1]; Homo sapiens, 3000.00 μM, 72 hours
  viability at 3000 µM: 3%
[2]
  viability at 12 µM: 63%

## CCC=CCC(O)C=CC=CCC=CCC=CCCCC(=O)O (stereo not drawn) [15-OHEPA, 15-Hydroxy-eicosa-5,8,11,13,17-pentaenoic acid]
P. acnes; 0.05 mg/mL
  effect on growth of P. acnes on its own: no effect
P. acnes
  MIC: 50 to 75 µg/mL (≈ 157 to 236 µM)
P. acnes; compound at 0.010 mg/mL
  Growth Index Avg: +++
  Growth Index Plate 1: +++
  Growth Index Plate 2: +++
  Growth Index Plate 3: +++
P. acnes; compound at 0.025 mg/mL
  Growth Index Avg: +++
  Growth Index Plate 1: +++
  Growth Index Plate 2: +++
  Growth Index Plate 3: +++
P. acnes; compound at 0.050 mg/mL
  Growth Index Avg: +++
  Growth Index Plate 1: +++
  Growth Index Plate 2: +++
  Growth Index Plate 3: +++
P. acnes; compound at 0.075 mg/mL
  Growth Index Avg: +
  Growth Index Plate 1: +
  Growth Index Plate 2: +
  Growth Index Plate 3: +
P. acnes; compound at 0.1 mg/mL
  Growth Index Avg: −
  Growth Index Plate 1: −
  Growth Index Plate 2: −
  Growth Index Plate 3: −

## CC[C@H]1OC(=O)[C@H](C)[C@@H](O[C@H]2C[C@@](C)(OC)[C@@H](O)[C@H](C)O2)[C@H](C)[C@@H](O[C@@H]2O[C@H](C)C[C@H](N(C)C)[C@H]2O)[C@](C)(O)C[C@@H](C)C(=O)[C@H](C)[C@@H](O)[C@]1(C)O [Erythromycin]
P. acnes
  MIC: 0.01 to 0.05 µg/mL (≈ 0.0136 to 0.0681 µM)

## CCCCCC(O)/C=C/C=C\C/C=C\CCCCCCC(=O)O (stereo not drawn) [15-HETrE, 15-hydroxy-eicosa-8(Z),11(Z),13(E)-trienoic acid]
P. acnes; 0.01 mg/ml
  effect on growth of P. acnes on its own: no effect
P. acnes; compound at 0.00001 mg/mL
  Growth Index Avg: +++
  Growth Index Plate 1: +++
  Growth Index Plate 2: +++
  Growth Index Plate 3: +++
P. acnes; compound at 0.0001 mg/mL
  Growth Index Avg: +++
  Growth Index Plate 1: +++
  Growth Index Plate 2: +++
  Growth Index Plate 3: +++
P. acnes; compound at 0.001 mg/mL
  Growth Index Avg: +++
  Growth Index Plate 1: +++
  Growth Index Plate 2: +++
  Growth Index Plate 3: +++
P. acnes; compound at 0.01 mg/mL
  Growth Index Avg: ++
  Growth Index Plate 1: ++
  Growth Index Plate 2: +++
  Growth Index Plate 3: ++
P. acnes; compound at 0.05 mg/mL
  Growth Index Avg: −
  Growth Index Plate 1: −
  Growth Index Plate 2: −
  Growth Index Plate 3: −
[1]; 0.5 µM
  Mean % Viability: 85%
[1]; 1 µM
  Mean % Viability: 77%
[1]; 4 µM
  Mean % Viability: 52%
[1]; 4.00 μM, 72 hours
  Morphological Observations: toxicity
[1]; 10 µM
  Mean % Viability: 18%
[1]; 10.00 μM (10 μM), 72 hours
  Morphological Observations: toxicity
[1]; 40 µM
  Mean % Viability: 1%
[1]; 110 µM
  Mean % Viability: 1%
[1]; 330 µM
  Mean % Viability: 0%
[1]; 1000 µM
  Mean % Viability: 0%

## CC1=C(/C=C/C(C)=C/C=C/C(C)=C\C(=O)O)C(C)(C)CCC1 [Isotretinoin]
[1]; 1.11 μM, 72 hours
  Morphological Observations: toxicity
[1]; Homo sapiens, 0.005 μM, 72 hours
  viability at 0.005 µM: 105%
[1]; Homo sapiens, 0.014 μM, 72 hours
  viability at 0.014 µM: 110%
[1]; Homo sapiens, 0.041 μM, 72 hours
  viability at 0.041 µM: 103%
[1]; Homo sapiens, 0.123 μM, 72 hours
  viability at 0.123 µM: 96%
[1]; Homo sapiens, 0.370 μM, 72 hours
  viability at 0.37 µM: 88%
[1]; Homo sapiens, 1.11 μM, 72 hours
  viability at 1.11 µM: 76%
[1]; Homo sapiens, 3.33 μM, 72 hours
  viability at 3.33 µM: 8%
[1]; Homo sapiens, 10.00 μM (10 μM), 72 hours
  viability at 10 µM: 1%
